Where two headings read alike, the source gives them in different places.
What was measured:
[1] = test system: HCV genotype 1a (H77 strain) replicon in HUH-7 cells; test: HCV replicon luciferase reporter assay, genotype 1a; format: cell-based; conditions: Hepatitis C virus, Huh-7, 72 h, 3 days incubation, read-out: LE_1a (EC50, range)
How it was run: (§1)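 Replicon inhibition for both genotypes was measured as Renilla luciferase signal (EnduRen, 7.5 μM final, 2 h) after 3-day, 37° C exposure of replicon-bearing HUH-7 cells in 4% FCS DMEM, 0.5% DMSO. The 1b construct carries S1179I; the 1a H77 construct carries P1496L and S2204I. Twenty-point, 3-fold dilutions were fitted four-parametrically for EC50, and CC50 was taken from multiplexed Cell Titer-Blue.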

[2] = test system: HCV genotype 1b (Con1) replicon in HUH-7 cells; test: HCV replicon luciferase reporter assay, genotype 1b; format: cell-based; conditions: Hepatitis C virus, Huh-7, 72 h, 3 days incubation, read-out: LE_1b (EC50, range)
How it was run: as §1

[3] = HCV genotype 1a replicon luciferase assay, range class
[4] = HCV genotype 1b replicon luciferase assay, range class
[5] = HCV genotype 1a replicon luciferase
[6] = HCV genotype 1b replicon luciferase

| Structure (SMILES) | EC50 [1, 3] | EC50 [2, 4] | EC50 [1, 5] | EC50 [2, 6] |
| --- | --- | --- | --- | --- |
| COc1ccc2c(O[C@@H]3C[C@H]4C(=O)N[C@]5(C(=O)NS(=O)(=O)C6CC6)C[C@H]5/C=C\CC[C@@H](C)C[C@@H](C)[C@H](NC(=O)O[C@@H]5C[C@@H]6C[C@@H]6C5)C(=O)N4C3)nccc2c1F [Compound 3152, (1R,3r,5S)-bicyclo[3.1.0]hexan-3-yl((2R,6S,7R,9R,13aS,14aR,16aS,Z)-14a-((cyclopropylsulfonyl)carbamoyl)-2-((5-fluoro-6-methoxyisoquinolin-1-yl)oxy)-7,9-dimethyl-5,16-dioxo-1,2,3,5,6,7,8,9,10,11,13a,14,14a,15,16,16a-hexadecahydrocyclopropa[e]pyrrolo[1,2-a][1,4]diazacyclopentadecin-6-yl)carbamate] | < 5.46 nM | < 5.46 nM |  |  |
| CCOc1cnc(O[C@@H]2C[C@H]3C(=O)N[C@]4(C(=O)NS(=O)(=O)C5(CF)CC5)C[C@H]4/C=C\CC[C@@H](C)C[C@@H](C)[C@H](NC(=O)OC(C)(C)C)C(=O)N3C2)c2ccc(OC)cc12 [Compound 4105, tert-butyl (2R,6S,7R,9R,13aS,14aR,16aS,Z)-2-(4-ethoxy-6-methoxyisoquinolin-1-yloxy)-14a-(1-(fluoromethyl)cyclopropylsulfonylcarbamoyl)-7,9-dimethyl-5,16-dioxo-1,2,3,5,6,7,8,9,10,11,13a,14,14a,15,16,16a-hexadecahydrocyclopropa[e]pyrrolo[1,2-a][1,4]diazacyclopentadecin-6-ylcarbamate] |  |  | < 5.46 nM | < 5.46 nM |
| CCn1nc(O[C@@H]2C[C@H]3C(=O)N[C@]4(C(=O)NS(=O)(=O)C5(C)CC5)C[C@H]4/C=C\CC[C@@H](C)C[C@@H](C)[C@H](NC(=O)O[C@@H]4C[C@@H]5C[C@@H]5C4)C(=O)N3C2)c2ccccc2c1=O [Compound 5057, (1R,3r,5S)-bicyclo[3.1.0]hexan-3-yl((2R,6S,7R,9R,13aS,14aR,16aS,Z)-2-((3-ethyl-4-oxo-3,4-dihydrophthalazin-1-yl)oxy)-7,9-dimethyl-14a-(((1-methylcyclopropyl)sulfonyl)carbamoyl)-5,16-dioxo-1,2,3,5,6,7,8,9,10,11,13a,14,14a,15,16,16a-hexadecahydrocyclopropa[e]pyrrolo[1,2-a][1,4]diazacyclopentadecin-6-yl)carbamate] |  |  | < 5.46 nM | < 5.46 nM |
| CC[C@@H]1C[C@H](C)CC/C=C\[C@@H]2C[C@@]2(C(=O)NS(=O)(=O)C2(C)CC2)NC(=O)[C@@H]2C[C@@H](Oc3ncc(F)c4cc(OC)ccc34)CN2C(=O)[C@H]1NC(=O)OC(C)(C)C [Compound 4383, tert-butyl ((2R,6S,7R,9R,13aS,14aR,16aS,Z)-7-ethyl-2-((4-fluoro-6-methoxyisoquinolin-1-yl)oxy)-9-methyl-14a-(((1-methylcyclopropyl)sulfonyl)carbamoyl)-5,16-dioxo-1,2,3,5,6,7,8,9,10,11,13a,14,14a,15,16,16a-hexadecahydrocyclopropa[e]pyrrolo[1,2-a][1,4]diazacyclopentadecin-6-yl)carbamate] |  |  | 1.01 to 5 nM | 0.51 to 1 nM |
| CCOc1cnc(O[C@@H]2C[C@H]3C(=O)N[C@]4(C(=O)NS(=O)(=O)C5CC5)C[C@H]4/C=C\CC[C@@H](C)C[C@@H](C)[C@H](NC(=O)OC(C)(C)C(F)(F)F)C(=O)N3C2)c2cccc(Cl)c12 [Compound 4025] |  |  | < 5.46 nM | < 5.46 nM |
| C[C@@H]1CC/C=C\[C@@H]2C[C@@]2(C(=O)NS(=O)(=O)C2CC2)NC(=O)[C@@H]2C[C@@H](Oc3nccc4c5c(ccc34)OC(F)(F)O5)CN2C(=O)[C@@H](NC(=O)O[C@H](C)C(F)(F)F)[C@H](C)C1 [Compound 5270, (R)-1,1,1-trifluoropropan-2-yl ((2R,6S,7R,9R,13aS,14aR,16aS,Z)-14a-((cyclopropylsulfonyl)carbamoyl)-2((2,2-difluoro-[1,3]dioxolo[4,5-f]isoquinolin-6-yl)oxy)-7,9-dimethyl-5,16-dioxo-1,2,3,5,6,7,8,9,10,11,13a,14,14a,15,16,16a-hexadecahydrocyclopropa[e]pyrrolo[1,2-a][1,4]diazacyclopentadecin-6-yl)carbamate] |  |  | < 5.46 nM | < 5.46 nM |
| CC[C@@H]1C[C@H](C)CC/C=C\[C@@H]2C[C@@]2(C(=O)NS(=O)(=O)C2CC2)NC(=O)[C@@H]2C[C@@H](Oc3nccc4c5c(ccc34)N(C)CCO5)CN2C(=O)[C@H]1NC(=O)NC(C)(C)C [Compound 5316, (2R,6S,7R,9R,13aS,14aR,16aS,Z)-6-(3-(tert-butyl)ureido)-N-(cyclopropylsulfonyl)-7-ethyl-9-methyl-2-((4-methyl-3,4-dihydro-2H-[1,4]oxazino[2,3-f]isoquinolin-7-yl)oxy)-5,16-dioxo-1,2,3,5,6,7,8,9,10,11,13a,14,14a,15,16,16a-hexadecahydrocyclopropa[e]pyrrolo[1,2-a][1,4]diazacyclopentadecine-14a-carboxamide] |  |  | < 5.46 nM | < 5.46 nM |
| COc1cc(F)cc2c(O[C@@H]3C[C@H]4C(=O)N[C@]5(C(=O)NS(=O)(=O)C6(C)CC6)C[C@H]5/C=C\CC[C@H](C)C[C@@H](C)[C@H](NC(=O)OCC5(C)CC5)C(=O)N4C3)nccc12 [Compound 3161, (1-methylcyclopropyl)methyl ((2R,6S,7R,9S,13aS,14aR,16aS,Z)-2-((7-fluoro-5-methoxyisoquinolin-1-yl)oxy)-7,9-dimethyl-14a-(((1-methylcyclopropyl)sulfonyl)carbamoyl)-5,16-dioxo-1,2,3,5,6,7,8,9,10,11,13a,14,14a,15,16,16a-hexadecahydrocyclopropa[e]pyrrolo[1,2-a][1,4]diazacyclopentadecin-6-yl)carbamate] | 4.82 to 103 nM | < 5.46 nM |  |  |
| COc1ccc2nc(O[C@@H]3C[C@H]4C(=O)N[C@]5(C(=O)NS(=O)(=O)C6(CF)CC6)C[C@H]5/C=C\CC[C@@H](C)C[C@@H](C)[C@H](NC(=O)OC(C)(C)C)C(=O)N4C3)c(C)nc2c1 [Compound 4221, tert-butyl (2R,6S,7R,9R,13aS,14aR,16aS,Z)-14a-(1-(fluoromethyl)cyclopropylsulfonylcarbamoyl)-2-(6-methoxy-3-methylquinoxalin-2-yloxy)-7,9-dimethyl-5,16-dioxo-1,2,3,5,6,7,8,9,10,11,13a,14,14a,15,16,16a-hexadecahydrocyclopropa[e]pyrrolo[1,2-a][1,4]diazacyclopentadecin-6-ylcarbamate] |  |  | < 5.46 nM | < 5.46 nM |
| COc1cnc(O[C@@H]2C[C@H]3C(=O)N[C@]4(C(=O)NS(=O)(=O)C5(CF)CC5)C[C@H]4/C=C\CC[C@@H](C)C[C@@H](C)[C@H](NC(=O)OC(C)(C)C)C(=O)N3C2)c2ccccc12 [Compound 4157, tert-butyl (2R,6S,7R,9R,13aS,14aR,16aS,Z)-14a-(1-(fluoromethyl)cyclopropylsulfonylcarbamoyl)-2-(4-methoxyisoquinolin-1-yloxy)-7,9-dimethyl-5,16-dioxo-1,2,3,5,6,7,8,9,10,11,13a,14,14a,15,16,16a-hexadecahydrocyclopropa[e]pyrrolo[1,2-a][1,4]diazacyclopentadecin-6-ylcarbamate] |  |  | < 5.46 nM | < 5.46 nM |
| CCOc1nnc(O[C@@H]2C[C@H]3C(=O)N[C@]4(C(=O)NS(=O)(=O)C5(C)CC5)C[C@H]4/C=C\CC[C@@H](C)C[C@@H](CC)[C@H](NC(=O)OC(C)(C)C(C)(F)F)C(=O)N3C2)c2ccccc12 [Compound 5051, 3,3-difluoro-2-methylbutan-2-yl((2R,6S,7R,9R,13aS,14aR,16aS,Z)-2-((4-ethoxyphthalazin-1-yl)oxy)-7-ethyl-9-methyl-14a-(((1-methylcyclopropyl)sulfonyl)carbamoyl)-5,16-dioxo-1,2,3,5,6,7,8,9,10,11,13a,14,14a,15,16,16a-hexadecahydrocyclopropa[e]pyrrolo[1,2-a][1,4]diazacyclopentadecin-6-yl)carbamate] |  |  | < 5.46 nM | < 5.46 nM |
| C[C@@H]1CC/C=C\[C@@H]2C[C@@]2(C(=O)NS(=O)(=O)C2(C)CC2)NC(=O)[C@@H]2C[C@@H](Oc3nccc4c5c(ccc34)OCCO5)CN2C(=O)[C@@H](NC(=O)OCC2(C)CC2)[C@H](C)C1 [Compound 5251, (1-methylcyclopropyl)methyl ((2R,6S,7R,9R,13aS,14aR,16aS,Z)-2-((2,3-dihydro-[1,4]dioxino[2,3-f]isoquinolin-7-yl)oxy)-7,9-dimethyl-14a-(((1-methylcyclopropyl)sulfonyl)carbamoyl)-5,16-dioxo-1,2,3,5,6,7,8,9,10,11,13a,14,14a,15,16,16a-hexadecahydrocyclopropa[e]pyrrolo[1,2-a][1,4]diazacyclopentadecin-6-yl)carbamate] |  |  | < 5.46 nM | < 5.46 nM |
| COc1ccc2c(O[C@@H]3C[C@H]4C(=O)N[C@]5(C(=O)NS(=O)(=O)C6CC6)C[C@H]5/C=C\CC[C@H](C)C[C@@H](C)[C@H](NC(=O)OC5C[C@@H]6C[C@@H]6C5)C(=O)N4C3)nc(-c3ccc(OC(C)C)nc3)cc2c1 (stereo partly drawn) [Compound 5218, (1R,3r,5S)-bicyclo[3.1.0]hexan-3-yl((2R,6S,7R,9S,13aS,14aR,16aS,Z)-14a-((cyclopropylsulfonyl)carbamoyl)-2-((3-(6-isopropoxypyridin-3-yl)-6-methoxyisoquinolin-1-yl)oxy)-7,9-dimethyl-5,16-dioxo-1,2,3,5,6,7,8,9,10,11,13a,14,14a,15,16,16a-hexadecahydrocyclopropa[e]pyrrolo[1,2-a][1,4]diazacyclopentadecin-6-yl)carbamate] |  |  | < 5.46 nM | < 5.46 nM |
